*1 amine or outer side, *2 acyl side, *3 side chain or, on linkers, in order; H or OH if unused. Where a SMILES comes first, the peptide text is derived from it. [ ]: non-standard residue; d: D form. The star is where a group is joined. ξ: configuration not given here. Pro(5R-Ph) = O=C(O)[C@@H]1CC[C@H](c2ccccc2)N1; Phac(3-amino) = O=C(Cc1cccc(N[*:1])c1)[*:2]; X7 = O=C(c1ccc(-c2cccc(N[*:1])c2)o1)[*:2]; X2 = O=C(/C=C/c1ccc(N[*:1])cc1)[*:2]; NH(2,6-Me2-phenyl) = Cc1cccc(C)c1N*; X3 = O=C(CCCc1ccc(N[*:1])cc1)[*:2]; Ala(cPr) = N[C@@H](CC1CC1)C(=O)O; X1 = O=C(Cc1ccc(N[*:1])cc1)[*:2]; X8 = O=C(COc1ccccc1N[*:1])[*:2]; Ile(3ξ) = CCC(C)[C@H](N)C(=O)O; NH(2-Me-phenyl) = Cc1ccccc1N*; Isovaleryl = CC(C)CC(=O)*; β3hD = NC(CC(=O)O)CC(=O)O; 4Abz = Nc1ccc(C(=O)O)cc1; Nle = CCCC[C@H](N)C(=O)O; Abu = CC[C@H](N)C(=O)O; Dap = NC[C@H](N)C(=O)O; X11 = CC(C)c1ccccc1N*; CO = O=C([*:1])[*:2]
Target: Integrin alpha-4/beta-1 (Homo sapiens, UniProt P05556+P13612, T112H)
Assay: Jurkat Cell Adhesion Inhibition Assay
Description: Binding affinities (IC50) of the ligands were studied in a Jurkat cell adhesion assay by inhibiting the alpha-4/beta-1 mediated cell adhesion to CS-1 peptides. The 96-well plates were coated with neutravidin, followed by biotinconjugated CS-1 peptides. Jurkat cells with series dilutions of tested ligands in binding buffer were added and allowed to bind for 30 min. Bound cells were recorded using a 96-well plate reader at 570 nm. IC50 values were calculated from inhibition curves resulting from the concentration-dependent inhibition

Row | Structure (SMILES) | IC50 [µM] | IC50 (pH 7.5, 22 °C) [µM]
1 | CCCC[C@H](NC(=O)/C=C/c1ccc(NC(=O)Nc2ccccc2C)cc1)C(=O)N[C@@H](CC(=O)O)C(=O)N[C@H](C(=O)N1CCC[C@H]1C(N)=O)C(C)CC (stereo partly drawn) [(3S)-3-{[(2S,3S)-1-[(2S)-2-carbamoylpyrrolidin-1-yl]-3-methyl-1-oxopentan-2-yl]carbamoyl}-3-[(2S)-2-[(2E)-3-(4-{[(2-methylphenyl)carbamoyl]amino}phenyl)prop-2-enamido]hexanamido]propanoic acid] ({NH(2-Me-phenyl)-CO}-[X2][Nle]D[Ile(3ξ)]P-NH2) | 0.0044 | –
2 | CCCC[C@H](NC(=O)c1ccc(NC(=O)Nc2ccccc2C)cc1)C(=O)N[C@@H](CC(=O)O)C(=O)N[C@H](C(=O)N1CCC[C@H]1C(N)=O)C(C)CC (stereo partly drawn) [(3S)-3-{[(2S,3S)-1-[(2S)-2-carbamoylpyrrolidin-1-yl]-3-methyl-1-oxopentan-2-yl]carbamoyl}-3-[(2S)-2-[(4-{[(2-methylphenyl)carbamoyl]amino}phenyl)formamido]hexanamido]propanoic acid] ({NH(2-Me-phenyl)-CO-4Abz}-[Nle]D[Ile(3ξ)]P-NH2) | 3 | –
3 | CCCC[C@H](NC(=O)Cc1ccc(NC(=O)Nc2ccccc2C)cc1)C(=O)N[C@@H](CC(=O)O)C(=O)N[C@@H](CC)C(=O)N1CCC[C@H]1C(N)=O [(3S)-3-{[(2S)-1-[(2S)-2-carbamoylpyrrolidin-1-yl]-1-oxobutan-2-yl]carbamoyl}-3-[(2S)-2-[1-(4-{[(2-methylphenyl)carbamoyl]amino}phenyl)acetamido]hexanamido]propanoic acid] ({NH(2-Me-phenyl)-CO}-[X1][Nle]D[Abu]P-NH2) | 0.0029 | –
4 | CCCC[C@H](NC(=O)Cc1ccc(NC(=O)Nc2ccccc2C)cc1)C(=O)N[C@@H](CC(=O)O)C(=O)N[C@H](C(=O)Nc1cccc(C(N)=O)c1)C(C)CC (stereo partly drawn) [(3S)-3-{[(1S,2S)-1-[(3-carbamoylphenyl)carbamoyl]-2-methylbutyl]carbamoyl}-3-[(2S)-2-[1-(4-{[(2-methylphenyl)carbamoyl]amino}phenyl)acetamido]hexanamido]propanoic acid] | – | 0.0033
5 | CCCC[C@H](NC(=O)Cc1ccc(NC(=O)Nc2ccccc2C)cc1)C(=O)N[C@@H](CC(=O)O)C(=O)N[C@H](C(=O)NC1CC[C@@H]2SC[C@@H](C(N)=O)N2C1=O)[C@@H](C)CC (stereo partly drawn) [(3S)-3-{[(1S,2S)-1-{[(3R,8aS)-3-carbamoyl-5-oxo-hexahydro-2H-pyrido[2,1-b][1,3]thiazol-6-yl]carbamoyl}-2-methylbutyl]carbamoyl}-3-[(2S)-2-[1-(4-{[(2-methylphenyl)carbamoyl]amino}phenyl)acetamido]hexanamido]propanoic acid] | – | 0.0034
6 | CCCC[C@H](NC(=O)CCCc1ccc(NC(=O)Nc2ccccc2C)cc1)C(=O)N[C@@H](CC(=O)O)C(=O)N[C@H](C(=O)N1CCC[C@H]1C(N)=O)C(C)CC (stereo partly drawn) [(3S)-3-{[(2S,3S)-1-[(2S)-2-carbamoylpyrrolidin-1-yl]-3-methyl-1-oxopentan-2-yl]carbamoyl}-3-[(2S)-2-[4-(4-{[(2-methylphenyl)carbamoyl]amino}phenyl)butanamido]hexanamido]propanoic acid] ({NH(2-Me-phenyl)-CO}-[X3][Nle]D[Ile(3ξ)]P-NH2) | 0.1 | –
7 | CCCC[C@H](NC(=O)Cc1ccc(NC(=O)Nc2c(C)cccc2C)cc1)C(=O)N[C@@H](CC(=O)O)C(=O)N[C@H](C(=O)N1CCC[C@H]1C(N)=O)C(C)CC (stereo partly drawn) [(3S)-3-{[(2S,3S)-1-[(2S)-2-carbamoylpyrrolidin-1-yl]-3-methyl-1-oxopentan-2-yl]carbamoyl}-3-[(2S)-2-[1-(4-{[(2,6-dimethylphenyl)carbamoyl]amino}phenyl)acetamido]hexanamido]propanoic acid] ({NH(2,6-Me2-phenyl)-CO}-[X1][Nle]D[Ile(3ξ)]P-NH2) | 0.0072 | –
8 | CCCC[C@H](NC(=O)Cc1ccc(NC(=O)Nc2ccccc2C)cc1)C(=O)N[C@@H](CC(=O)O)C(=O)N[C@H](C(=O)N1CCCC(C(N)=O)C1)C(C)CC (stereo partly drawn) [(3S)-3-{[(2S,3S)-1-(3-carbamoylpiperidin-1-yl)-3-methyl-1-oxopentan-2-yl]carbamoyl}-3-[(2S)-2-[1-(4-{[(2-methylphenyl)carbamoyl]amino}phenyl)acetamido]hexanamido]propanoic acid] | – | 0.004
9 | CCCC[C@H](NC(=O)COc1ccccc1NC(=O)Nc1ccccc1C)C(=O)N[C@@H](CC(=O)O)C(=O)N[C@H](C(=O)N1CCC[C@H]1C(N)=O)C(C)CC (stereo partly drawn) [(3S)-3-{[(2S,3S)-1-[(2S)-2-carbamoylpyrrolidin-1-yl]-3-methyl-1-oxopentan-2-yl]carbamoyl}-3-[(2S)-2-[2-(2-{[(2-methylphenyl)carbamoyl]amino}phenoxy)acetamido]hexanamido]propanoic acid] ({NH(2-Me-phenyl)-CO}-[X8][Nle]D[Ile(3ξ)]P-NH2) | 0.463 | –
10 | CCCC[C@H](NC(=O)Cc1cccc(NC(=O)Nc2ccccc2C)c1)C(=O)N[C@@H](CC(=O)O)C(=O)N[C@H](C(=O)N1CCC[C@H]1C(N)=O)C(C)CC (stereo partly drawn) [(3S)-3-{[(2S,3S)-1-[(2S)-2-carbamoylpyrrolidin-1-yl]-3-methyl-1-oxopentan-2-yl]carbamoyl}-3-[(2S)-2-[1-(3-{[(2-methylphenyl)carbamoyl]amino}phenyl)acetamido]hexanamido]propanoic acid] ({NH(2-Me-phenyl)-CO}-[Phac(3-amino)][Nle]D[Ile(3ξ)]P-NH2) | 0.14 | –
11 | CCCC[C@H](NC(=O)Cc1ccc(NC(=O)Nc2ccccc2C)cc1)C(=O)N[C@@H](CC(=O)O)C(=O)N[C@H](C(=O)N1CC(O)C[C@H]1C(N)=O)C(C)CC (stereo partly drawn) [(3S)-3-{[(2S,3S)-1-[(2S)-2-carbamoyl-4-hydroxypyrrolidin-1-yl]-3-methyl-1-oxopentan-2-yl]carbamoyl}-3-[(2S)-2-[1-(4-{[(2-methylphenyl)carbamoyl]amino}phenyl)acetamido]hexanamido]propanoic acid] | – | 0.003
12 | CCCC[C@H](NC(=O)Cc1ccc(NC(=O)Nc2ccccc2C)cc1)C(=O)N[C@@H](CC(=O)O)CC(=O)N[C@H](C(=O)N1CCC[C@H]1C(N)=O)C(C)CC (stereo partly drawn) [(3R)-4-{[(2S,3R)-1-[(2S)-2-carbamoylpyrrolidin-1-yl]-3-methyl-1-oxopentan-2-yl]carbamoyl}-3-[(2S)-2-[1-(4-{[(2-methylphenyl)carbamoyl]amino}phenyl)acetamido]hexanamido]butanoic acid] ({NH(2-Me-phenyl)-CO}-[X1][Nle][β3hD][Ile(3ξ)]P-NH2) | 0.004 | –

Second part, the compound after the results:

Row | IC50 [µM] | IC50 (pH 7.5, 22 °C) [µM] | Structure (SMILES)
13 | – | 0.038 | CCCC[C@H](NC(=O)Cc1ccc(NC(=O)Nc2ccccc2C)cc1)C(=O)N[C@@H](CC(=O)O)C(=O)N[C@H](C(=O)N1[C@@H](c2ccccc2)CC[C@H]1C(N)=O)C(C)CC (stereo partly drawn) [(3S)-3-{[(2S,3S)-1-[(2S,5R)-2-carbamoyl-5-phenylpyrrolidin-1-yl]-3-methyl-1-oxopentan-2-yl]carbamoyl}-3-[(2S)-2-[1-(4-{[(2-methylphenyl)carbamoyl]amino}phenyl)acetamido]hexanamido]propanoic acid] ({NH(2-Me-phenyl)-CO}-[X1][Nle]D[Ile(3ξ)][Pro(5R-Ph)]-NH2)
14 | – | 0.0032 | CCCC[C@H](NC(=O)Cc1ccc(NC(=O)Nc2ccccc2C)cc1)C(=O)N[C@@H](CC(=O)O)C(=O)N[C@H](C(=O)N1CSC[C@@H]1C(N)=O)C(C)CC (stereo partly drawn) [(3S)-3-{[(2S,3S)-1-[(4S)-4-carbamoyl-1,3-thiazolidin-3-yl]-3-methyl-1-oxopentan-2-yl]carbamoyl}-3-[(2S)-2-[1-(4-{[(2-methylphenyl)carbamoyl]amino}phenyl)acetamido]hexanamido]propanoic acid]
15 | 0.063 | – | CCC(C)[C@H](NC(=O)[C@H](CC(=O)O)NC(=O)[C@H](CNC(=O)CC(C)C)NC(=O)Cc1ccc(NC(=O)Nc2ccccc2C)cc1)C(=O)N1CCC[C@H]1C(N)=O (stereo partly drawn) [(3S)-3-{[(2S,3S)-1-[(2S)-2-carbamoylpyrrolidin-1-yl]-3-methyl-1-oxopentan-2-yl]carbamoyl}-3-[(2S)-3-(3-methylbutanamido)-2-[1-(4-{[(2-methylphenyl)carbamoyl]amino}phenyl)acetamido]propanamido]propanoic acid] ({NH(2-Me-phenyl)-CO}-[X1][Dap](Isovaleryl)D[Ile(3ξ)]P-NH2)
16 | 0.325 | – | CCCC[C@H](NC(=O)c1ccc(-c2cccc(NC(=O)Nc3ccccc3C)c2)o1)C(=O)N[C@@H](CC(=O)O)C(=O)N[C@H](C(=O)N1CCC[C@H]1C(N)=O)C(C)CC (stereo partly drawn) [(3S)-3-{[(2S,3S)-1-[(2S)-2-carbamoylpyrrolidin-1-yl]-3-methyl-1-oxopentan-2-yl]carbamoyl}-3-[(2S)-2-{[5-(3-{[(2-methylphenyl)carbamoyl]amino}phenyl)furan-2-yl]formamido}hexanamido]propanoic acid] ({NH(2-Me-phenyl)-CO}-[X7][Nle]D[Ile(3ξ)]P-NH2)
17 | 0.531 | – | CCCC[C@H](NC(=O)Cc1ccc(NC(=O)Nc2ccccc2C(C)C)cc1)C(=O)N[C@@H](CC(=O)O)C(=O)N[C@H](C(=O)N1CCC[C@H]1C(N)=O)C(C)CC (stereo partly drawn) [(3S)-3-{[(2S,3S)-1-[(2S)-2-carbamoylpyrrolidin-1-yl]-3-methyl-1-oxopentan-2-yl]carbamoyl}-3-[(2S)-2-{1-[4-({[2-(propan-2-yl)phenyl]carbamoyl}amino)phenyl]acetamido}hexanamido]propanoic acid] ({X11-CO}-[X1][Nle]D[Ile(3ξ)]P-NH2)
18 | 0.064 | – | CCC(C)[C@H](NC(=O)[C@H](CC(=O)O)NC(=O)[C@H](CC1CC1)NC(=O)Cc1ccc(NC(=O)Nc2ccccc2C)cc1)C(=O)N1CCC[C@H]1C(N)=O (stereo partly drawn) [(3S)-3-{[(2S,3S)-1-[(2S)-2-carbamoylpyrrolidin-1-yl]-3-methyl-1-oxopentan-2-yl]carbamoyl}-3-[(2S)-3-cyclopropyl-2-[1-(4-{[(2-methylphenyl)carbamoyl]amino}phenyl)acetamido]propanamido]propanoic acid] ({NH(2-Me-phenyl)-CO}-[X1][Ala(cPr)]D[Ile(3ξ)]P-NH2)

Source: BindingDB's records for doi:10.1002/bip.20588 (University of California Davis, 2006)
